Tests used:
[1] = tested on: L. monocytogenes 15313; assay: spot on lawn assay; format: cell-based; details: 10-μl spots
Excerpt: For each antimicrobial solution concentration, a spot on lawn assay procedure was first conducted on agar plates to assess the efficacy of the solution to colony control. In this procedure, the TSA agar plates were inoculated with L. monocytogenes 15313 at a level of 10E+08 cfu/ml through an Autoplate 4000 model from Spiral Biotech. A volumetric pipette pump was then used to place three 10-μl spots of an antimicrobial solution onto appropriate regions of the test plate. Separately, another volumetric pipette pump was used to place 10 μl of a control solution (i.e., the solution in which the antimicrobial agent is dissolved). Three such agar plates were prepared for each concentration of antimicrobial solution. After spot placement, the plates were allowed to stand undisturbed for 10 to 30 minutes in a laminar flow hood before incubation at 37° C. for at least 24 hours. The resultant zones of inhibition were measured using a dial caliper (Brown and Sharpe, accuracy to 0.02 mm) with each zone measured twice on a 90° axis. Three such spots (for the antimicrobial treated solution) were so measured per plate, with three plates per condition to provide 18 such measurements. […] In the film on lawn procedure, 15 mm×15 mm films of example 1 and 2 were placed in freshly made up solutions for 12 to 24 hours at room temperature and then removed with a pair of flame-sterilized ocular forceps, allowed to drip dry, then placed for 60 seconds on a sterile Petri-dish before positioning on agar plates in a film on lawn assay procedure. The TSA agar plates had been prepared by inoculating with L. monocytogenes at a level of 10E+08 cfu/ml through an Autoplate 4000 model from Spiral Biotech. […] The resultant zones of inhibition were measured using a dial caliper (Brown and Sharpe, accuracy to 0.02 mm) with each zone measured twice on a 90° axis. Two such films (for the antimicrobial treated film) were so measured per plate, with three plates per condition to provide 12 such measurements. No zones of inhibition were recorded for the control films.

[2] = tested on: L. monocytogenes; assay: film on lawn assay; format: cell-based
Description: Films of Example 1 and Example 2 at 150μ in thickness were cut into 15 mm by 15 mm samples placed onto aluminum foil, and exposed to UV light in a laminar flow hood for 4 to 7 minutes. The samples were then transferred from foil to various solutions as described in Table 6 to soak for 12 to 24 hours at room temperature.
For each antimicrobial solution concentration, a spot on lawn assay procedure was first conducted on agar plates to assess the efficacy of the solution to colony control. In this procedure, the TSA agar plates were inoculated with L. monocytogenes 15313 at a level of 10E+08 cfu/ml through an Autoplate 4000 model from Spiral Biotech. A volumetric pipette pump was then used to place three 10-μl spots of an antimicrobial solution onto appropriate regions of the test plate. Separately, another volumetric pipette pump was used to place 10 μl of a control solution (i.e., the solution in which the antimicrobial agent is dissolved). Three such agar plates were prepared for each concentration of antimicrobial solution. After spot placement, the plates were allowed to stand undisturbed for 10 to 30 minutes in a laminar flow hood before incubation at 37° C. for at least 24 hours. The resultant zones of inhibition were measured using a dial caliper (Brown and Sharpe, accuracy to 0.02 mm) with each zone measured twice on a 90° axis. Three such spots (for the antimicrobial treated solution) were so measured per plate, with three plates per condition to provide 18 such measurements. […] In the film on lawn procedure, 15 mm×15 mm films of example 1 and 2 were placed in freshly made up solutions for 12 to 24 hours at room temperature and then removed with a pair of flame-sterilized ocular forceps, allowed to drip dry, then placed for 60 seconds on a sterile Petri-dish before positioning on agar plates in a film on lawn assay procedure. The TSA agar plates had been prepared by inoculating with L. monocytogenes at a level of 10E+08 cfu/ml through an Autoplate 4000 model from Spiral Biotech. Two such films were so placed on the prepared TSA agar plates. A third 15 mm×15 mm film was soaked under the same conditions in a control solution (the solution without the antimicrobial agent) and placed in a third region of the plate. Three such plates were prepared in this manner for each concentration of antimicrobial agent. After film placement, the plates were allowed to stand undisturbed for 10 to 30 minutes in a laminar flow hood before incubation at 37° C. for at least 24 hours. The resultant zones of inhibition were measured using a dial caliper (Brown and Sharpe, accuracy to 0.02 mm) with each zone measured twice on a 90° axis. Two such films (for the antimicrobial treated film) were so measured per plate, with three plates per condition to provide 12 such measurements. No zones of inhibition were recorded for the control films.

O=C(O)c1ccccc1 [Benzoic acid]
Group averages of Inhibition Zones (mm), Spot on Lawn Assay ([1]; 0.75 wt % in Ethanol/Water (36/63.25)): 7.31 ± 0.91 mm | Group averages of Inhibition Zones (mm), Spot on Lawn Assay ([1]; 1.5 wt % in Ethanol/Water (36/62.5)): 7.70 ± 0.61 mm | Group averages of Inhibition Zones (mm), Spot on Lawn Assay ([1]; 3.0 wt % in Ethanol/Water (36/61)): 8.64 ± 0.76 mm | Group averages of Inhibition Zones (mm), Film on Lawn Assay Example 1 ([2]; 15 mm x 15 mm film of Example 1 soaked 12-24 h in 0.75 wt % in Ethanol/Water (36/63.25)): 21.55 ± 0.77 mm | Group averages of Inhibition Zones (mm), Film on Lawn Assay Example 2 ([2]; 15 mm x 15 mm film of Example 2 soaked 12-24 h in 0.75 wt % in Ethanol/Water (36/63.25)): 23.49 ± 1.47 mm | Group averages of Inhibition Zones (mm), Film on Lawn Assay Example 1 ([2]; film of Example 1 soaked in 1.5 wt % in Ethanol/Water (36/62.5)): 25.92 ± 1.02 mm | Group averages of Inhibition Zones (mm), Film on Lawn Assay Example 1 ([2]; film of Example 1 soaked in 3.0 wt % in Ethanol/Water (36/61)): 25.76 ± 0.41 mm | Group averages of Inhibition Zones (mm), Film on Lawn Assay Example 2 ([2]; film of Example 2 soaked in 1.5 wt % in Ethanol/Water (36/62.5)): 27.85 ± 0.96 mm | Group averages of Inhibition Zones (mm), Film on Lawn Assay Example 2 ([2]; film of Example 2 soaked in 3.0 wt % in Ethanol/Water (36/61)): 27.6 ± 2.03 mm

O=C(O)CC(O)(CC(=O)O)C(=O)O [Citric acid]
Group averages of Inhibition Zones (mm), Film on Lawn Assay Example 1 ([2]; film of Example 1 soaked in 5 wt % in Water (95)): Slight^3 | Group averages of Inhibition Zones (mm), Film on Lawn Assay Example 1 ([2]; film of Example 1 soaked in 7.5 wt % in Water (92.5)): 19.21 ± 0.25 mm | Group averages of Inhibition Zones (mm), Film on Lawn Assay Example 1 ([2]; film of Example 1 soaked in 10 wt % in Water (90)): 21.00 ± 0.63 mm | Group averages of Inhibition Zones (mm), Film on Lawn Assay Example 2 ([2]; film of Example 2 soaked in 5 wt % in Water (95)): 0 mm | Group averages of Inhibition Zones (mm), Film on Lawn Assay Example 2 ([2]; film of Example 2 soaked in 7.5 wt % in Water (92.5)): 0 mm | Group averages of Inhibition Zones (mm), Film on Lawn Assay Example 2 ([2]; film of Example 2 soaked in 10 wt % in Water (90)): 0 mm
